Reference: PMC9266822, “Thermal Shift Assay for Small GTPase Stability Screening: Evaluation and Suitability” (International Journal of Molecular Sciences, 2022)
Entries after “also recorded” stand apart in the source; their conditions may differ.

Legend:
KRAS G12C [1] = system: T1, KRAS G12C; test: SYPRO Orange / ANS thermal ramping assay; type: binding, human; settings: 10 µM KRAS G12C, 20 µM inhibitor, double transitions
T1 construct: GG-Hs.KRAS4b (2-188) G12C; His6-MBP (N, cleaved yes); made in house; host or cells: E. coli
Description: (§1) SYPRO Orange and ANS assays were performed using a one-step protocol, where the samples (8 µL) and SYPRO Orange/ANS solution (12 µL) were combined prior to the first heating step. The samples were incubated for 3 min at each temperature, followed by fluorescence signal measurement. SYPRO Orange was used at 5× (stock 5000×) and ANS at 10 µM final concentration.

KRAS G12C [2] = molecular target: T2, KRAS G12C (Homo sapiens, UniProt P01116, G12C); test: Competitive Protein-Probe thermal stability assay with DARPin K13; type: binding; settings: 50 nM KRAS G12C, 50 nM K13; 2 µM inhibitor
T2 construct: GG-Hs.KRAS4b (2-188) G12C; His6-MBP (N, cleaved yes); made in house; host or cells: E. coli

KRAS G12C [3] = system: T1, KRAS G12C; test: Protein-Probe thermal stability assay; type: binding, human; settings: for concentration of saturated stabilization / ΔTm: 50 nM KRAS G12C; for ΔTm: 5 µM inhibitor, saturated
Description: All Protein-Probe assays were performed using a sample volume of 8 µL and a two-step assay protocol. […] Assays were performed in a sample buffer containing 10 mM HEPES (pH 7.5), 0.001% Triton X-100 and 20 mM NaCl and the buffer was supplemented with 0–10 mM MgCl2, 0–1 mM CaCl2, or 0–1 mM EDTA, depending on the assay. In all thermal stability assays, samples were preincubated at RT for 10 min (nucleotides) or 30 min (inhibitors) prior to thermal measurements. […] At each temperature, samples were incubated for 3 min before the Protein-Probe solution was added, and the TRL-signals at 620 nm were monitored at RT. […]
(§2) All inhibitor assays were performed with a buffer containing 1 mM MgCl2. […]

KRAS WT [4] = system: T3, KRAS WT; test: SYPRO Orange thermal ramping assay; type: binding, human; settings: 10 µM KRAS WT, 20 µM compound
T3 construct: His6-MBP (N, cleaved yes); made in house; host or cells: E. coli
Description: as §1

KRAS G12C [5] = system: T1, KRAS G12C; test: Protein-Probe thermal stability assay; type: binding, human; settings: KRAS G12C 50 nM; 1 µM ARS-1620; 0 mM MgCl2
KRAS G12D = test: Protein-Probe thermal stability assay; type: binding, human; settings: Table S1; KRAS G12D 50 nM; MgCl2 1 mM, GDP 10 mM as headed
Description: (§3) All Protein-Probe assays were performed using a sample volume of 8 µL and a two-step assay protocol. Detection was performed at room temperature (RT) by adding 65 µL Protein-Probe solution: 4 µM HIDC (1,1,3,3,3′,3′-hexamethylindodicarbocyanine iodide) and 1–1.5 nM Eu^3+-labeled peptide probe (NH2-[…]). Assays were performed in a sample buffer containing 10 mM HEPES (pH 7.5), 0.001% Triton X-100 and 20 mM NaCl and the buffer was supplemented with 0–10 mM MgCl2, 0–1 mM CaCl2, or 0–1 mM EDTA, depending on the assay. In all thermal stability assays, samples were preincubated at RT for 10 min (nucleotides) or 30 min (inhibitors) prior to thermal measurements. Depending on the studied protein, thermal ramping was performed up to 95 °C, using 5 °C intervals. At each temperature, samples were incubated for 3 min before the Protein-Probe solution was added, and the TRL-signals at 620 nm were monitored at RT.
(§4) In addition, KRAS WT was monitored in a sample buffer supplemented with 0–10 mM MgCl2 or 0–1 mM CaCl2.
(§5) KRAS G13D (50 nM) was monitored in the presence of 0–900 nM GDP, and KRAS WT, G13D, G12D, and Q61R (50 nM) were monitored with 10 and/or 100 µM GDP, GTP, and ATP in buffer supplemented with 1 mM MgCl2. KRAS WT (50 nM) was also monitored with 10 µM GDP in a buffer without MgCl2 or supplemented with 0–1 mM CaCl2 or 1 mM EDTA. HRAS (2 µM), NRAS (2 µM), RhoA (2 µM), and Gαi (50 nM) were monitored with 100 µM GDP, GTP, or ATP in buffers with or without 1 mM MgCl2 and 1 mM EDTA. In addition, melting curves for KRAS WT (50 nM) were measured with GTP analogs GTPγS, GMPPNP, and GMPPCP (0–300 µM), and GMP (0–1000 µM) in the presence of 1 mM MgCl2.
All inhibitor assays were performed with a buffer containing 1 mM MgCl2.
(§6) Assays were performed using three DARPins alone or in combination with small molecular inhibitors. […] The thermal curves were monitored after an additional 30 min incubation at RT.

KRAS WT [6] = molecular target: T4, KRAS WT (Homo sapiens, UniProt P01116); test: QRET nucleotide exchange assay, SOScat induced; type: biochemical; settings: 15 nM KRAS
T4 construct: GG-Hs.KRAS4b (2-188), GG-Hs.KRAS4b (2-188) G12C; His6-MBP (N, cleaved yes); made in house; host or cells: E. coli

KRAS G13D [7] = system: T5, KRAS G13D; test: SYPRO Orange thermal ramping assay; type: binding, human; settings: KRAS G13D 3 µM, 1 mM MgCl2, GDP 1 µM, ATP 1 mM
T5 construct: GG-Hs.KRAS4b (2-188) G13D; His6-MBP (N, cleaved yes); made in house; host or cells: E. coli
Description: as §1
Thermal stability curves for KRAS WT, G12C, G13D, and Q61R (0–30 µM) were monitored both with SYPRO Orange and ANS in an assay buffer with or without 1 mM MgCl2. In addition, HRAS, NRAS, KRAS V14I, RhoA, and Gαi were studied at 10 µM concentration. KRAS G13D (3 µM) was assayed with SYPRO Orange in thermal ramping in combination with 0–1000 µM GDP, 1000 µM GTP, and 1000 µM ATP in a buffer supplemented with 1 mM MgCl2. Additionally, 10 µM HRAS, NRAS, KRAS V14I, Ac-KRAS iMet-KRAS, RhoA, and Gαi were studied without additional nucleotides or with 10 or 100 µM GDP/GTP in an assay buffer supplemented with 1 mM MgCl2 or 1 mM EDTA.

Gαi = test: Protein-Probe thermal stability assay; type: binding; settings: 100 µM GDP or GTP
Description: as §3, §4, §5

KRAS WT [8] = system: T3, KRAS WT; test: Protein-Probe thermal stability assay; type: binding, human
Description: as §3, §4
as §5, with “KRAS G13D (50 nM) was monitored in the presence of 0–900 nM GDP, and KRAS WT, G13D, G12D, and Q61R (50 nM) were monitored with 10 and/or 100 µM GDP, GTP, and ATP in buffer supplemented with 1 mM MgCl2.” left out
as §2

RhoA = system: T6, RhoA; test: Protein-Probe thermal stability assay; type: binding; settings: Table S1; RhoA 1 µM; additive concentrations not given (100 µM GDP/GTP)
T6 construct: and RhoA (1-182) were gen-; His6-MBP (N, cleaved yes); made in house; host or cells: E. coli
Description: as §3, §4
as §5, with “HRAS (2 µM), NRAS (2 µM), RhoA (2 µM), and Gαi (50 nM) were monitored with 100 µM GDP, GTP, or ATP in buffers with or without 1 mM MgCl2 and 1 mM EDTA.” left out

KRAS G13D [9] = system: T5, KRAS G13D; test: Protein-Probe thermal stability assay; type: binding, human; settings: KRAS G13D 50 nM
Description: as §3, §4, §5, §6

KRAS Q61R = system: T7, KRAS Q61R; test: Protein-Probe thermal stability assay; type: binding, human; settings: KRAS Q61R 50 nM
T7 construct: GG-Hs.KRAS4b (2-188) Q61R; His6-MBP (N, cleaved yes); made in house; host or cells: E. coli
Description: as §3, §4, §5, §6

[10] = Table S1, EDTA 0.5 mM, MgCl2 1 mM, GDP 10 mM, GTP 10 µM as headed

## C=CC(=O)N1CC(N2CCN(C(=O)CNc3cc(C4(C)CC4)c(Cl)cc3O)CC2)C1 [ARS-853]
KRAS G12C [1]
  maximal thermal stabilization: ~13 °C
KRAS G12C [2]
  thermal stability increase in the presence of K13: no thermal stability increase
KRAS G12C [3]
  concentration of saturated stabilization: 5 µM
  ΔTm: 16 °C
KRAS WT [4]
  effect on thermal stability: Neither compound altered

## C=CC(=O)N1CCN(c2ncnc3c(F)c(-c4c(O)cccc4F)c(Cl)cc23)CC1 [ARS-1620]
KRAS G12C [1]
  maximal thermal stabilization: ~13 °C
KRAS G12C [2]
  thermal stability increase in the presence of K13: no thermal stability increase
KRAS G12C [5]
  thermal stabilization: diminished the thermal stability effect; also recorded: required Mg^2+ to stabilize
KRAS G12C [3]
  concentration of saturated stabilization: 5 µM
  ΔTm: 18 °C
KRAS G12C [3]; KRAS G12C 50 nM, 1 µM ARS-1620, 1 mM MgCl2
  thermal stabilization: thermally stabilizes
KRAS WT [4]
  effect on thermal stability: Neither compound altered

## Nc1nc2c(ncn2[C@@H]2O[C@H](COP(=O)(O)OP(=O)(O)O)[C@@H](O)[C@H]2O)c(=O)[nH]1 [GDP, guanosine-5’-diphosphate]
KRAS G12D
  Thermal Stability (°C): 67.6 ± 0.4 °C
KRAS WT [6]; Fig. 3A legend, SOScat 10 nM
  KRAS binding: < 15 nM
KRAS WT [6]; nucleotide titration, SOScat 5 nM (Table S2), 10 nM (Fig. 3 legend)
  EC50: 11.9 ± 0.7 nM
KRAS G13D [7]
  stabilization: no KRAS G13D stabilization
Gαi; with Mg2+
  max ΔTm: ≤ 1.0 °C
Gαi; without Mg2+
  max ΔTm: ≤ 3.3 °C
KRAS WT [8]; KRAS 50 nM preloaded with the nucleotide, unit not given, in °C (unit assumed)
  Tm of nucleotide-preloaded KRAS: 60.4 ± 0.2
KRAS WT [8]; KRAS WT 50 nM, 1 mM MgCl2
  concentration at which KRAS was stabilized: 10000 nM
KRAS WT [8]; KRAS WT 50 nM, 10 µM GDP in 1 mM MgCl2
  ΔTm: 7.6 °C
KRAS WT [8]; KRAS WT 50 nM, 10 µM GDP in the presence of 1 mM EDTA
  ΔTm: 11.3 °C
KRAS WT [8]; KRAS WT 50 nM, 10 µM GDP with 0.1 mM Ca2+, unit not given, in °C (unit assumed)
  Tm: 61.2 ± 0.9
KRAS WT [8]; KRAS WT 50 nM, 10 µM GDP with 1 mM Ca2+, unit not given, in °C (unit assumed)
  Tm: 61.8 ± 0.6
KRAS WT [8]; Table S1, KRAS WT 50 nM, additive as headed: EDTA 0.5 mM, MgCl2 1 mM, GDP 10 mM, GTP 10 µM, GTPγS 10 µM, GMP-PNP 300 µM, GMP-PCP 300 µM, GMP 1 mM
  Thermal Stability (°C): 68.0 ± 0.5 °C
RhoA
  Thermal Stability (°C): 70.1 ± 1.1 °C
KRAS G13D [9]; 10 µM GDP
  shift of Tm: over 10 °C
KRAS G13D [9]; GDP titration 0–0.9 mM
  GDP concentration at which stabilization saturates: approximately 300 µM
KRAS G13D [9]; [10]
  Thermal Stability (°C): 60.5 ± 0.2 °C
KRAS Q61R; 10 µM GDP
  stabilization by GDP: not stabilized; also recorded: no change in Tm
KRAS Q61R; [10]
  Thermal Stability (°C): 71.3 ± 0.9 °C
